Measurements taken from patent US5071850A, “2,3-dihydro-3-arylalkylaminoalkyl-4H-1,3-benzoxazin-4-one derivatives, their preparation and their application as medicinal products which are useful in therapy” (Pierre Fabre Medicament, priority 1988, dated 1991).
Counter-ions that a name gives are not always drawn.

Legend:
[1] = Solubility in water; assay type: physicochemical
[2] = Acute intravenous toxicity in mice (LD50, Miller and Tainter); conditions: mouse, in vivo, mice weighing 20 to 22 g
Description: The chemical compounds described above were subjected to toxicity controls. This study was carried out on conventional mice weighing 20 to 22 g. The watersoluble salts of the compounds of general formula I were administered intravenously. The 50% lethal dose (LD50) is calculated according to the method of Miller and Tainter (Proc. Soc. Exp. Biol. Med. 1944, 57, 261).

[3] = system: anesthetized rats; assay: Coronary ligation in anesthetized rats (antiarrhythmic activity and heart rate); assay type: in vivo; conditions: for % fall in heart rate after 1 min: 1 min after injection; for % fall in heart rate after 1 min / % fall in heart rate after 10 min: % change relative to controls; for % fall in heart rate after 10 min: 10 min after injection; for % fall in arrhythmias: coronary ligation
Text: a) The technique of coronary ligation in anesthetized rats according to Clark et al. (J. Pharm. […] SC denotes the percentage reduction in disorders of rhythm induced by these compounds, n denotes the number of animals.

[4] = system: rats anesthetized with pentobarbital sodium; assay: Bradycardic effect and intracardiac conduction times (ECG, arterial pressure) in pentobarbital-anesthetized rats; assay type: in vivo; conditions: for % ABP (mean arterial blood pressure) / % HR (heart rate): % change at peak of action; for % modification of the ECG intervals: PQ (atrioventricular conduction time) / % modification of the ECG intervals: QRS (intraventricular conduction time) / % modification of the ECG intervals: QTS / % modification of the ECG intervals: TP (electrocardiac diastole): at peak of action
Description: b) The bradycardic effect and the analysis of the intracardiac conduction times were studied on rats anesthetized with pentobarbital sodium (40 mg/kg ip) and left in spontaneous ventilation. The electrocardiogram is recorded simultaneously in the standard leads OI, OII and OIII; the arterial blood pressure is measured on a femoral artery. The percentage changes are considered at the peak of action. The results relating to the compounds A, B, J, G and N are given in Table III, by way of non-limiting example.

[5] = system: conscious dogs; assay: Bradycardic effect in conscious dogs with hydralazine-raised heart rate (Kobinger and Lillie); assay type: in vivo; conditions: for Heart rate after / Heart rate before / Heart rate Change: 1 mg/kg iv; for Heart rate after: after test product; for Heart rate after / Heart rate Change: hydralazine tachycardia; for Heart rate before: before test product, after hydralazine 1 mg/kg iv
Description: When the latter has stabilized, the test products are injected intravenously.

[6] = system: Right atrium; assay: Chronotropic effect on isolated spontaneously beating right atrium; set-up: species or system guineapig; conditions: Cavia porcellus, spontaneous rhythm, percentage change; for inhibition at 0.3 µg/mL: 0.3 ug/ml; for inhibition at 1 µg/mL: 1 ug/ml
Description: (§1) c) Finally, the chronotropic and inotropic activities were measured on isolated guineapig atria placed in isolated organ cells. The organs are then connected to force gauges. The right atrium, beating in a spontaneous rhythm, enables the negative chronotropic effects of the products to be assessed. As regards the left atria, these are electrically stimulated at a fixed rhythm so as to evaluate actions on the inotropic effect. The percentage changes are recorded in Table V for the compounds A, B, G and J, by way of non-limiting examples.

[7] = system: Left atrium; assay: Inotropic effect on isolated electrically stimulated left atrium; set-up: species or system guineapig; conditions: Cavia porcellus, electrically stimulated at fixed rhythm, percentage change; for inhibition at 0.3 µg/mL: 0.3 ug/ml; for inhibition at 1 µg/mL: 1 ug/ml
Description: as §1

## COc1ccc(CCN(C)CCCN2COc3ccc(C)cc3C2=O)cc1OC.Cl [Compound F, 2,3-Dihydro-3-{3-[(methyl)(3,4-dimethoxyphenethyl)amino]propyl}-6-methyl-4H-1,3-benzoxazin-4-one hydrochloride]
[1]
  solubility: ~100 mg/mL

## COc1ccc(CCN(C)CCCN2COc3ccccc3C2=O)cc1OC.Cl [Compound A, 2,3-Dihydro-3-{3-[(methyl)(3,4-dimethoxyphenethyl)amino]propyl}-4H-1,3-benzoxazin-4-one hydrochloride]
[2]
  LD50: 27 mg/kg
[3]; 2.5 mg/kg iv
  % fall in heart rate after 1 min: -30%
  % fall in heart rate after 10 min: -11%
  % fall in arrhythmias: -9%
[3]; 10 mg/kg iv
  % fall in heart rate after 1 min: -50%
  % fall in heart rate after 10 min: -19%
  % fall in arrhythmias: -76%
[4]; 3 mg/kg iv
  % ABP (mean arterial blood pressure): -33%
  % HR (heart rate): -31%
  % modification of the ECG intervals: PQ (atrioventricular conduction time): +26%
  % modification of the ECG intervals: QRS (intraventricular conduction time): +11%
  % modification of the ECG intervals: QTS: +29%
  % modification of the ECG intervals: TP (electrocardiac diastole): +76%
[5]
  Heart rate after: 140 bts/min
  Heart rate before: 215 bts/min
  Heart rate Change: -35%
[6]
  inhibition at 0.3 µg/mL: 15%
  inhibition at 1 µg/mL: 19%
[7]
  inhibition at 0.3 µg/mL: 16%
  inhibition at 1 µg/mL: 15%
[1]
  solubility: 100 mg/mL

## COc1cc2c(cc1OC)C(=O)N(CCCN(C)CCc1ccccc1)CO2.Cl [Compound O, 2,3-Dihydro-6,7-dimethoxy-3-{3-[(methyl)(phenethyl)amino]propyl}-4H-1,3-benzoxazin-4-one hydrochloride]
[1]
  solubility: > 100 mg/mL

## COc1ccc(CCN(C)CCCN2C(=O)c3cccc(OC)c3OC2C)cc1OC.Cl (centres unmarked) [Compound L, 2,3-Dihydro-3-{3-[(methyl)(3,4-dimethoxyphenethyl)amino]propyl}-8-methoxy-2-methyl-4H-1,3-benzoxazin-4-one hydrochloride]
[1]
  solubility: 100 mg/mL

## COc1ccc(CCN(C)CCCN2COc3cc(C)ccc3C2=O)cc1OC.Cl [Compound G, 2,3-Dihydro-3-{3-[(methyl)(3,4-dimethoxyphenethyl)amino]propyl}-7-methyl-4H-1,3-benzoxazin-4-one hydrochloride]
[3]; 2.5 mg/kg iv
  % fall in heart rate after 1 min: -39%
  % fall in heart rate after 10 min: -16%
  % fall in arrhythmias: -1%
[4]; 1 mg/kg iv
  % ABP (mean arterial blood pressure): -10%
  % HR (heart rate): -18%
  % modification of the ECG intervals: PQ (atrioventricular conduction time): +10%
  % modification of the ECG intervals: QRS (intraventricular conduction time): +5%
  % modification of the ECG intervals: QTS: +12%
  % modification of the ECG intervals: TP (electrocardiac diastole): +32%
[6]
  inhibition at 1 µg/mL: 35%
[7]
  inhibition at 1 µg/mL: 4%
[1]
  solubility: 90 mg/mL

## CCCCCCCC1Oc2cc(OC)c(OC)cc2C(=O)N1CCCN(C)CCc1ccc(OC)c(OC)c1 (centres unmarked) [Compound N, hydrochloride]
[3]; 2.5 mg/kg iv
  % fall in heart rate after 1 min: -4%
  % fall in heart rate after 10 min: -6%
  % fall in arrhythmias: -72%
[4]; 1 mg/kg iv
  % ABP (mean arterial blood pressure): -9%
  % HR (heart rate): -12%
  % modification of the ECG intervals: PQ (atrioventricular conduction time): +7%
  % modification of the ECG intervals: QRS (intraventricular conduction time): +12%
  % modification of the ECG intervals: QTS: +10%
  % modification of the ECG intervals: TP (electrocardiac diastole): +21%
[1]
  solubility: 100 mg/mL

## COc1ccc(CCN(CCCN2COc3cc(OC)c(OC)cc3C2=O)Cc2ccccc2)cc1OC [Example 17, 2,3-Dihydro-6,7-dimethoxy-3-{3-[(benzyl)(3,4-dimethoxyphenethyl)amino]propyl}-4H-1,3-benzoxazin-4-one hydrochloride monohydrate]
[1]
  solubility: 60 mg/mL

## COc1ccc(CCN(C)CCCN2C(=O)c3cc(OC)c(OC)cc3OC2C)cc1OC.Cl (centres unmarked) [Compound M, 2,3-Dihydro-6,7-dimethoxy-3-{3-[(methyl)(3,4-dimethoxyphenethyl)amino]propyl}-2-methyl-4H-1,3-benzoxazin-4-one hydrochloride]
[1]
  solubility: 100 mg/mL

## COc1ccc(CCNCCN2COc3cc(OC)c(OC)cc3C2=O)cc1OC.Cl [Compound R, 2,3-Dihydro-6,7-dimethoxy-3-[2-(3,4-dimethoxyphenethylamino)ethyl]-4H-1,3-benzoxazin-4-one hydrochloride]
[1]
  solubility: 120 mg/mL

## COc1ccc(CCN(C)CCCN2COc3c(OC)cccc3C2=O)cc1OC.Cl [Compound C, 2,3-Dihydro-3-{3-[(methyl)(3,4-dimethoxyphenethyl)amino]propyl}-8-methoxy-4H-1,3-benzoxazin-4-one hydrochloride]
[1]
  solubility: ~100 mg/mL

## COc1ccc(CCN(C)CCCN2COc3cc(OC)c(OC)cc3C2=O)cc1OC.Cl [Compound B, 2,3-Dihydro-6,7-dimethoxy-3-{3-[(methyl)(3,4-dimethoxyphenethyl)amino]propyl}-4H-1,3-benzoxazin-4-one hydrochloride]
[2]
  LD50: 48 mg/kg
[3]; 2.5 mg/kg iv
  % fall in heart rate after 1 min: -50%
  % fall in heart rate after 10 min: -28%
  % fall in arrhythmias: -38%
[3]; 10 mg/kg iv
  % fall in heart rate after 1 min: -66%
  % fall in heart rate after 10 min: -60%
  % fall in arrhythmias: -80%
[4]; 1 mg/kg iv
  % ABP (mean arterial blood pressure): -16%
  % HR (heart rate): -32%
  % modification of the ECG intervals: PQ (atrioventricular conduction time): +9%
  % modification of the ECG intervals: QRS (intraventricular conduction time): +12%
  % modification of the ECG intervals: QTS: +38%
  % modification of the ECG intervals: TP (electrocardiac diastole): +95%
[4]; 3 mg/kg iv
  % ABP (mean arterial blood pressure): -34%
  % HR (heart rate): -55%
  % modification of the ECG intervals: PQ (atrioventricular conduction time): +17%
  % modification of the ECG intervals: QRS (intraventricular conduction time): +24%
  % modification of the ECG intervals: QTS: +75%
  % modification of the ECG intervals: TP (electrocardiac diastole): +211%
[5]
  Heart rate after: 105 bts/min
  Heart rate before: 175 bts/min
  Heart rate Change: -40%
[6]
  inhibition at 0.3 µg/mL: 27%
  inhibition at 1 µg/mL: 64%
[7]
  inhibition at 0.3 µg/mL: 9%
  inhibition at 1 µg/mL: 6.5%
[1]
  solubility: > 100 mg/mL

## COc1ccc(CCN(C)CCCN2COc3c(C)cccc3C2=O)cc1OC.Cl [Compound H, 2,3-Dihydro-3-{3-[(methyl)(3,4-dimethoxyphenethyl)amino]propyl}-8-methyl-4H-1,3-benzoxazin-4-one hydrochloride]
[1]
  solubility: 80 mg/mL

## COc1ccc(CCNCCCN2COc3cc(OC)c(OC)cc3C2=O)cc1OC.Cl [Compound P, 2,3-Dihydro-6,7-dimethoxy-3-[3-(3,4-dimethoxyphenethylamino)propyl]-4H-1,3-benzoxazin-4-one hydrochloride]
[1]
  solubility: > 100 mg/mL

## COc1ccc2c(c1)OCN(CCCN(C)CCc1ccc(OC)c(OC)c1)C2=O.Cl [Compound E, 2,3-Dihydro-3-{3-[(methyl)(3,4-dimethoxyphenethyl)amino]propyl}-7-methoxy-4H-1,3-benzoxazin-4-one hydrochloride]
[1]
  solubility: 100 mg/mL

## COc1ccc(CCN(C)CCCN2COc3ccc(Br)cc3C2=O)cc1OC.Cl [Compound K, 6-Bromo-2,3-dihydro-3-{3-[(methyl)(3,4-dimethoxyphenethyl)amino]propyl}-4H-1,3-benzoxazin-4-one hydrochloride]
[1]
  solubility: 90 mg/mL

## COc1ccc(CCN(C)CCCN2COc3cc(Cl)ccc3C2=O)cc1OC.Cl [Compound J, 7-Chloro-2,3-dihydro-3-{3-[(methyl)(3,4-dimethoxyphenethyl)amino]propyl}-4H-1,3-benzoxazin-4-one hydrochloride]
[3]; 2.5 mg/kg iv
  % fall in heart rate after 1 min: -32%
  % fall in heart rate after 10 min: -12%
  % fall in arrhythmias: -37%
[4]; 1 mg/kg iv
  % ABP (mean arterial blood pressure): -13%
  % HR (heart rate): -16%
  % modification of the ECG intervals: PQ (atrioventricular conduction time): +9%
  % modification of the ECG intervals: QRS (intraventricular conduction time): +12%
  % modification of the ECG intervals: QTS: +12%
  % modification of the ECG intervals: TP (electrocardiac diastole): +29%
[6]
  inhibition at 1 µg/mL: 29%
[7]
  inhibition at 1 µg/mL: 11%
[1]
  solubility: 120 mg/mL

## COc1ccc2c(c1)C(=O)N(CCCN(C)CCc1ccc(OC)c(OC)c1)CO2.Cl [Compound D, 2,3-Dihydro-3-{3-[(methyl)(3,4-dimethoxyphenethyl)amino]propyl}-6-methoxy-4H-1,3-benzoxazin-4-one hydrochloride]
[1]
  solubility: > 100 mg/mL

## NNc1nncc2ccccc12 [hydralazine, reference compound]
[5]; hydralazine 1 mg/kg iv, conscious dogs
  heart rate effect of hydralazine: causes tachycardia
